In data set [1] the target is T1, DOR (Homo sapiens, UniProt P41143).
T1 construct: expressed in transfected cells; host or cells: CHO (hDOR-CHO)
The data set can be described thus: Opioid binding assay, displacement of [3H]DADLE, hDOR-CHO cell membranes. (Loss of bound radioactivity is the signal in a displacement assay; it reports binding, not function.)

Data set [2] concerns the target T2, MOR (Homo sapiens, UniProt P35372).
T2 construct: expressed in transfected cells; host or cells: CHO (hMOR-CHO)
The data set can be described thus: Opioid binding assay, displacement of [3H]DAMGO, hMOR-CHO cell membranes. The following applies: for selectivity ratio MOR/DOR: ratio of Ki values, CHO membranes.

Data set [3] deals with T3, KOR (Homo sapiens, UniProt P41145).
T3 construct: expressed in transfected cells; host or cells: CHO (hKOR-CHO)
As to the kind of experiment: biochemical. Format: binding.

The target in data set [4] is T4, DOR (Mus musculus, UniProt P32300).
T4 construct: endogenous in cells; host or cells: NG108-15 neuroblastoma x glioma cells
The data set can be described thus: [35S]GTP-γ-S binding assay, NG108-15 cells. Format: biochemical. The following applies: for functional activity profile at DOR: in words; for agonist activity DOR EC50: stimulation of [35S]GTP-γ-S binding, no stim = no stimulation.

For data set [5], the target named is T2, MOR. As to the kind of experiment: [35S]GTP-γ-S binding assay, hMOR-CHO cells. To be noted: for Emax: read-out: agonist activity MOR Emax. The class given is biochemical. (In general: GTPγS resists hydrolysis and so accumulates on activated G proteins.)
The target in data set [6] is T3, KOR. The data set can be described thus: [35S]GTP-γ-S binding assay, hKOR-CHO cells. Format: biochemical. To be noted: for Emax: normalized to stimulation by standard agonist.
The next data set relates to mice. The data set can be described thus: 55° C. warm-water tail-withdrawal test. Format: in vivo, mouse.
The mark [7] stands for this setting: normalized to stimulation by DAMGO.
Setting [8] is: stimulation of [35S]GTP-γ-S binding, no stim = no stimulation.

SMILES strings stand for the structures. Read-outs that look alike come from different tables or passages of the source.

T3 sequence (P41145 whole entry): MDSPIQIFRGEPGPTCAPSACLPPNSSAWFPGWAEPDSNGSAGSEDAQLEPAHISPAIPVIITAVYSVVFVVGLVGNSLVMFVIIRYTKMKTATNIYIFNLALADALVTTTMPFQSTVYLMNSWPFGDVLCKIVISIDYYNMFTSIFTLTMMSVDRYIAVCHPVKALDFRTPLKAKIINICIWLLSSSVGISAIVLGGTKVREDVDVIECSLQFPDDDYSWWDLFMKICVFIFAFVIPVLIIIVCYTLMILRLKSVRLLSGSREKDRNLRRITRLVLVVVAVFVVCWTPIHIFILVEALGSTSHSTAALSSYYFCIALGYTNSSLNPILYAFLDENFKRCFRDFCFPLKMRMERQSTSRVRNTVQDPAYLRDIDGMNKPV
T4 sequence (P32300 whole entry): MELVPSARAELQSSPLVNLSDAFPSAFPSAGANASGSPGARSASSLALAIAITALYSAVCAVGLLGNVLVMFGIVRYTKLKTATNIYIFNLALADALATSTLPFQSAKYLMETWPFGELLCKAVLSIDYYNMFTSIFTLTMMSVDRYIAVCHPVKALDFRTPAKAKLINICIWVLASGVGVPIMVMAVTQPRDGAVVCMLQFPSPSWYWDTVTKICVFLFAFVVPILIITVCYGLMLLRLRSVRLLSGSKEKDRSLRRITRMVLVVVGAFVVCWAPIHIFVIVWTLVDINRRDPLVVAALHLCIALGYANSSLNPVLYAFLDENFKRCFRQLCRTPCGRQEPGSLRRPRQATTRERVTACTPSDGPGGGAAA
T2 sequence (P35372 whole entry): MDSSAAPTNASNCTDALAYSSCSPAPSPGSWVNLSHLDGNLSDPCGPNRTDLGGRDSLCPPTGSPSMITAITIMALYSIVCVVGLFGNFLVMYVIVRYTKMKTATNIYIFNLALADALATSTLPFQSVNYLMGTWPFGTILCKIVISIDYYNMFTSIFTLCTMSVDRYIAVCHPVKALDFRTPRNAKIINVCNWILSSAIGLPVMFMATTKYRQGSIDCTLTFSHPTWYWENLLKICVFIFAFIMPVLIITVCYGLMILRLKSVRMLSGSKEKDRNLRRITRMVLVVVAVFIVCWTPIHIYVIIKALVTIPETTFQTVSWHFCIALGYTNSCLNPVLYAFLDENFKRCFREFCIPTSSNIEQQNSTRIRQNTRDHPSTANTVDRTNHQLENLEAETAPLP
T1 sequence (P41143 whole entry): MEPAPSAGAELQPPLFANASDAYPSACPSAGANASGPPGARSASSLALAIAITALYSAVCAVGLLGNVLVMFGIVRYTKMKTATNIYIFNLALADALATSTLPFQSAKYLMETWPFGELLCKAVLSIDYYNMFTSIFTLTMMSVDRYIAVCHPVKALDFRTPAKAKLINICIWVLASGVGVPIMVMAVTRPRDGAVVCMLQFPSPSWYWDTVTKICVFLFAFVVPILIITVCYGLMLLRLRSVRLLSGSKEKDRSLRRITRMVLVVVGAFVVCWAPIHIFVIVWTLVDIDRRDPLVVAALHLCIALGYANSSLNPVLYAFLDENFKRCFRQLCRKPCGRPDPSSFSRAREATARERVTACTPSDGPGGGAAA

`COC12Cc3cc(-c4ccc(Cl)cc4)cnc3C3Oc4c(O)ccc5c4C31CCN(C)C2C5` (stereo not drawn) [Compound 17e, 5′-(4-Chlorophenyl)-6,7-didehydro-4,5α-epoxy-3-hydroxy-14-methoxy-17-methylpyrido[2′,3′:6,7]morphinan]: the melting point (commonly the temperature, or range, at which the solid turns liquid) is 296 to 299 °C (dec.). Besides, at DOR [1], the inhibition constant (Ki) (as a rule, the dissociation constant of the complex between target and ligand, obtained from inhibition or displacement) worked out at 1.63 ± 0.08 nM. Besides, on MOR [2], the inhibitory constant (Ki) stood at 7.89 ± 0.33 nM and the “selectivity ratio MOR/DOR” value is reported as 4.8. At KOR [3] (ratio of Ki values, CHO membranes), the “selectivity ratio KOR/DOR” value worked out at 17. For the same molecule, on KOR [3] (read-out: Ki ± SEM KOR), the Ki worked out at 28 ± 1.59 nM. Besides, at DOR [4], the “functional activity profile at DOR” value is “antagonist activity at DOR” and the “agonist activity DOR EC50” value was “no stim”. For the same molecule, at MOR [5], a half-maximal effect (EC50) was put at 379 nM. In addition, at MOR [5] (setting [7]), the Emax (as a rule, the maximal effect, on the per cent scale that the assay sets) is 118 ± 4%. At KOR [6], the concentration giving a half-maximal response (EC50) (in general, the concentration needed to bring the measured effect to its halfway point) was determined as 633 ± 108 nM and the maximum response (Emax) was found to be 36 ± 2%. Further, the “analgesic potency, fold weaker than other tested ligands” value with mice (icv) was determined as 6 fold. Moreover, the “Antinociceptive A50 Values” with mice (icv, calculated at time of peak effect) is 1.44 nmol. For the same molecule, the antinociceptive effect result in the data set with mice (icv, in words) is “full antinociceptive effects”. Further, the “effect of naloxone pretreatment on antinociceptive effect” value in the data set with mice (naloxone 10 mg/kg ip, -10 min, icv test compound) is recorded as “blocked by naloxone pretreatment”.
The molecule `CN1CCC23c4c5ccc(O)c4OC2c2ncc(-c4ccc(Cl)cc4)cc2CC3(OC(=O)CCc2ccccc2)C1C5` (stereo not drawn) [Compound 18f, 5′-(4-Chlorophenyl)-6,7-didehydro-4,5α-epoxy-3-hydroxy-17-methyl-14-(3-phenylpropionyloxy)pyrido[2′,3′:6,7]morphinan] gave a melting point of 242 to 244 °C. For the same molecule, the affinity on DOR [1], expressed as Ki, was 0.96 ± 0.05 nM. Moreover, on MOR [2], the affinity, expressed as Ki, was 0.94 ± 0.05 nM and the “selectivity ratio MOR/DOR” value is reported as 0.98. Further, at KOR [3], the inhibition constant Ki was 4.41 ± 0.23 nM and the “selectivity ratio KOR/DOR” value was 4.6. At DOR [4], the “functional activity profile at DOR” value is “weak to potent partial agonist activity at DOR”. Besides, the maximum response (Emax) on DOR [4] (read-out: agonist activity DOR Emax) came to 59 ± 2%. The molecule also returned a 50% effective concentration (EC50) on MOR [5] of 48 nM. Besides, on MOR [5] (setting [7]), the “agonist activity MOR Emax” value is on record as 105 ± 2% and the maximal response (Emax) was over 100%. Moreover, on KOR [6], the EC50 is 136 ± 60 nM and the Emax was determined as 16 ± 2%.
`Oc1ccc2c3c1OC1c4ncc(-c5ccc(Cl)cc5)cc4C=C4C(C2)N(CC2CC2)CCC431` (stereo not drawn) [Compound 23, 5′-(4-Chlorophenyl)-17-(cyclopropylmethyl)-3-hydroxy-6,7,8,14-tetradehydro-4,5α-epoxypyrido[2′,3′:6,7]morphinan] yielded a melting point of 164 to 166 °C. This molecule also came in with a Ki at DOR [1] of 2.71 ± 0.11 nM. Moreover, on MOR [2], the Ki is 13 ± 0.4 nM and the “selectivity ratio MOR/DOR” value was 4.8. On KOR [3], the affinity corresponds to a Ki of 5.97 ± 0.19 nM and the “selectivity ratio KOR/DOR” value is 2.2. For the same molecule, at DOR [4], the “agonist activity DOR EC50” value is “no stim”. Also, the “functional activity profile at MOR” value on MOR [5] (in words) is “antagonists at MOR”. For the same molecule, the “agonist activity MOR EC50” value on MOR [5] (setting [8]) was “no stim”. The “agonist activity KOR EC50” value on KOR [6] (setting [8]) is on record as “no stim”.
